Results from US20210278391A1, “COMPOSITIONS AND METHODS FOR TREATING CARDIOVASCULAR AND METABOLIC CONDITIONS” (The Regents of the University of California, priority 2017, published 2021).
Entries after “also recorded” stand apart in the source; their conditions may differ.

Legend:
[1] = Plasma BCKA/BCAA concentrations in wild-type and PP2Cm-KO mice; type: in vivo, mouse; details: BT2 vs vehicle
Protocol: PP2Cm germ-line knockout (PP2Cm-KO) mice were generated as previously described (Lu et al. (2009), supra). PP2Cm KO mice were backcrossed for more than 8 generations into a C57BL/6 background. Wild type C57BL/6 mice and PP2Cm KO mice were housed at 22° C. with a 12-hour light, 12-hour dark cycle with free access to water and standard chow. Studies were performed with male mice. Human cohorts of dilated cardiomyopathy and controls were obtained from Columbia and Duke with Institutional Review Board approval. […]
BCKA Measurements in mouse Plasma: The method published by Olson et al. (2013), supra was followed with modification. […] The samples were re-suspended in 50:50 MeOH:5 mM NH4 acetate and analyzed by LC-MS/MS using a Sciex 3200 Q-Trap coupled to a Shimadzu Prominence LC. An Agilent C18 XDB 5 micron packing column (50×4.6 mm) was used for chromatography with the following conditions: Buffer A: 5 mM NH4 acetate, Buffer B: methanol, 0-2.0 min 50% B, 2.0-2.5 min gradient to 100% B, 2.5-3.5 min 100% B, 3.5-3.6 min gradient to 50% B, 3.6-4.6 min 50% B. The derivatized keto acids were detected with the mass spectrometer in positive MRM (multiple reaction monitoring) mode using the following transitions: KIC 203.1 to 161.1 (retention time: 2.91 min); KIV 189.145 to 119.2 (retention time 2.84 min); KMV 203.065 to 174.2 (retention time 2.99 min); [^13C] […]

[2] = tested on: pressure-overloaded heart; assay: Transaortic constriction (TAC) pressure overload, BT2 started one week before TAC, echocardiography; type: in vivo, mouse; details: 4 weeks after TAC, BT2 40 mg/kg/d oral gavage
Protocol: PP2Cm germ-line knockout (PP2Cm-KO) mice were generated as previously described (Lu et al. (2009), supra). PP2Cm KO mice were backcrossed for more than 8 generations into a C57BL/6 background. Wild type C57BL/6 mice and PP2Cm KO mice were housed at 22° C. with a 12-hour light, 12-hour dark cycle with free access to water and standard chow. Studies were performed with male mice. Human cohorts of dilated cardiomyopathy and controls were obtained from Columbia and Duke with Institutional Review Board approval. All animal procedures were carried out in accordance with the guidelines and protocols approved by the University of California at Los Angeles Institutional Animal Care and Use Committee (IACUC). Transaortic constriction (TAC) and cardiac echocardiography were performed as reported earlier 17 on mice from different genotypes between 14 and 16 weeks of age. […] Measurements of BCKD activity in mouse cardiac tissue and plasma BCKA/BCAA concentrations were performed as previously described (Tso et al. (2014), supra).
In mice, transverse aortic constriction (TAC) was performed as described (Gao et al. (2016) J Clin Invest. 126:195-206) in anesthetized (pentobarbital 60 mg/kg, IP) and ventilated mice (age 14-16 weeks) to induce hypertrophy and heart failure. […]

[3] = tested on: pressure-overloaded mouse heart; assay: TAC heart failure model with preexisting dysfunction, BT2 from 2 weeks post-TAC for 6 weeks, echocardiography and survival; type: in vivo
Protocol: In mice, transverse aortic constriction (TAC) was performed as described (Lee et al. (2011) Circulation Research 109:1332-1341) in anesthetized (pentobarbital 60 mg/kg, IP) and ventilated mice (age 12-14 weeks) to induce hypertrophy and heart failure. After left anterolateral thoracotomy with blunt dissection through the intercostal muscles, aortic constriction was induced by ligating the transverse aorta around a 27½-gauge blunt needle using 6-0 silk suture. The needle was subsequently removed. Sham-operated mice underwent a similar surgical procedure without constriction of the aorta. All mice were maintained in the same environment with regular lab chow and water ad libitum. At the end of the experiments, animals were euthanized and the hearts and lungs were removed and weighed. Hearts were dissected and tissues were either immediately immersed into 4% buffered formaldehyde or quickly frozen in liquid nitrogen for further experiments.

[4] = tested on: pressure-overloaded mouse heart; assay: Metabolic gene expression (quantitative PCR) in pressure-overloaded mouse heart; type: in vivo
Excerpt: Total RNA was extracted from heart tissues using Trizol Reagent (Invitrogen) according to the manufacturer's instructions. Total RNA was reverse-transcribed into the first-strand cDNA using ProtoScript® II Reverse Transcriptase (New England BioLabs). Then, cDNA transcripts were quantified by the CFX Real-Time PCR System (BioRad). 18sRNA were used for normalization except where indicated. PCR primer information is available upon request.

[5] = after 5 weeks post-TAC (3 weeks post-treatment), speckle tracking
[6] = by 2 weeks of BT2 treatment (4 weeks post-TAC)

Structure (SMILES): O=C(O)c1sc2cc(Cl)ccc2c1Cl [BT2, 3,6-dichlorobenzo[b]thiophene-2-carboxylic acid]
- plasma BCAA level [1]: modest impact; also recorded: reduced
- plasma BCKA level [1]: markedly reduced
- chamber dilation [2]: reduced
- left ventricular ejection fraction [2]: significantly preserved
- longitudinal early diastolic strain rate (SRe) ([3]; 5 weeks post-TAC): remarkably improved
- chamber size (ΔLVIDs, ΔLV Vols) ([3]; BT2 treated mouse hearts post-TAC): stable maintenance
- myocardial strain [3, 5]: significantly improved
- myocardial strain rate [3, 5]: significantly improved
- increase of EF from baseline (week 2) [3, 6]: 6.0±3.4 points
- increase of FS from baseline (week 2) [3, 6]: 3.5±1.9 points
- systolic dysfunction ([3]; continuation of BT2 for additional 4 weeks): additional alleviations
- beneficial effect on SRe at radial circumferential planes ([3]; during the treatment period): dispersity
- mouse survival ([3]; from two weeks after treatment): improved
- systolic velocity and displacement in longitudinal and radial planes ([3]; post-TAC): increase
- systolic function ([3]; pressure-overloaded mouse heart, six weeks treatment): preserved
- pressure-overload-induced cardiac structural remodeling ([3]; six weeks treatment): alleviated
- PDK4 mRNA level ([4]; BT2 treated mouse heart): trend of increase
- gene expression related to glucose transport ([4]; BT2 treated mouse heart): unaffected
- mRNA level of CD36 ([4]; BT2 treated mouse heart post-TAC): moderately increased
- genes related to fatty acid β-oxidation (Acox1, Acadm) ([4]; BT2 treated mouse hearts): mild increase
- mitochondrial DNA amount and PGC-1a mRNA levels ([4]; vehicle vs BT2, post-sham or post-TAC): unaffected
